The NIST ThermoML archive (doi:10.1016/j.jct.2016.03.029)
± gives the expanded uncertainty stated by the source.

Legend:
[1] = refractive index (Na D-line) (dimensionless); settings: 100 kPa, Liquid, Standard Abbe refractometry
[2] = 100 kPa, Liquid; for speed of sound: Frequency=3 MHz, Sing-around technique in a fixed-path interferometer; for mass density: Vibrating tube method
[3] = refractive index (Na D-line) (dimensionless); xn = mol fraction of the nth substance listed; settings: 100 kPa, Liquid, Standard Abbe refractometry, x2 = 0
[4] = xn = mol fraction of the nth substance listed; settings: 100 kPa, Liquid, x2 = 0; for speed of sound: Frequency=3 MHz, Sing-around technique in a fixed-path interferometer; for mass density: Vibrating tube method

CCCC[n+]1ccn(C)c1.O=S(=O)([N-]S(=O)(=O)C(F)(F)F)C(F)(F)F
Settings | mass density, [2] [kg/m3] | refractive index, [1] | speed of sound, [2] [m/s]
298.15 K | 1433.72 ± 1 | 1.42671 ± 0.00085 | 1227.9 ± 1.3
303.15 K | 1428.92 ± 1 | 1.42522 ± 0.00085 | 1216.8 ± 1.3
308.15 K | 1424.13 ± 1 | 1.42373 ± 0.00085 | 1205.8 ± 1.2
313.15 K | 1419.36 ± 1 | 1.42225 ± 0.00085 | 1195 ± 1.2
318.15 K | 1414.61 ± 1 | 1.42076 ± 0.00085 | 1184.2 ± 1.2
323.15 K | 1409.88 ± 1 | 1.41923 ± 0.00085 | 1173.6 ± 1.2

CN1CCCC1=O [N-methylpyrrolidone]
Settings | mass density, [2] [kg/m3] | refractive index, [1] | speed of sound, [2] [m/s]
298.15 K | 1027.1 ± 1 | 1.46838 ± 0.00086 | 1543.8 ± 1.4
303.15 K | 1022.64 ± 1 | 1.46626 ± 0.00086 | 1524.3 ± 1.4
308.15 K | 1018.18 ± 1 | 1.46412 ± 0.00086 | 1505 ± 1.4
313.15 K | 1013.72 ± 1 | 1.46199 ± 0.00086 | 1485.7 ± 1.4
318.15 K | 1009.25 ± 1 | 1.45983 ± 0.00086 | 1466.7 ± 1.4
323.15 K | 1004.79 ± 1 | 1.45771 ± 0.00086 | 1447.8 ± 1.4

CN1CCCC1=O [N-methylpyrrolidone] + CCCC[n+]1ccn(C)c1.O=S(=O)([N-]S(=O)(=O)C(F)(F)F)C(F)(F)F
Settings | mass density, [4] [kg/m3] | refractive index, [3] | speed of sound, [4] [m/s]
298.15 K | 1027.1 ± 1 | 1.46838 ± 0.00086 | 1543.8 ± 1.4
303.15 K | 1022.64 ± 1 | 1.46626 ± 0.00086 | 1524.3 ± 1.4
308.15 K | 1018.18 ± 1 | 1.46412 ± 0.00086 | 1505 ± 1.4
313.15 K | 1013.72 ± 1 | 1.46199 ± 0.00086 | 1485.7 ± 1.4
318.15 K | 1009.25 ± 1 | 1.45983 ± 0.00086 | 1466.7 ± 1.4
323.15 K | 1004.79 ± 1 | 1.45771 ± 0.00086 | 1447.8 ± 1.4
